Assay results as given in patent publication US20100255580A1, “Differentiation of Human Embryonic Stem Cells” (LIFESCCAN, INC., priority 2007, published 2010).

What was measured:
Format in all cases: cell-based
[1] = test system: human embryonic stem cells (H9, H7) on MATRIGEL; experiment: FACS of CXCR4, DE protocol on […] (feeder-free); details: for cells expressing CXCR4 (FACS): H9 passage 54, end of the 5th day, 100 ng/ml Activin A +/− 10 ng/ml Wnt3a for 2 days
Protocol: (§1) Adhered cells were removed from culture plates by five-minute incubation with TrypLE™ Express solution (Invitrogen, CA). Released cells were resuspended in human embryonic stem cell culture medium and recovered by centrifugation, followed by washing and resuspending the cells in a staining buffer consisting of 2% BSA, 0.05% sodium azide in PBS (Sigma, MO). As appropriate, the cells were Fc-receptor blocked for 15 minutes using a 0.1% γ-globulin (Sigma) solution. […] Controls included appropriate isotype matched antibodies, unstained cells, and cells stained only with secondary conjugated antibody. All incubations with antibodies were performed for 30 mins at 4° C. after which the cells were washed with the staining buffer. Samples that were stained with unconjugated primary antibodies were incubated for an additional 30 mins at 4° C. with secondary conjugated PE or -APC labeled antibodies. See Table I for a list of secondary antibodies used. Washed cells were pelleted and resuspended in the staining buffer, and the cell surface molecules were identified using a FACS Array (BD Biosciences) instrument, collecting at least 10,000 events.
Differentiation of embryonic stem cells to definitive endoderm was carried out as previously described in Nature Biotechnology 23, 1534-1541 (December 2005). […] H9 cells were cultured on plates coated with growth factor reduced […] at a 1:30 to 1:10 dilution or on regular […] at a 1:30 to 1:10 dilution The plates were coated with […] for 1 hr at room temperature.
At day 5, the cultures were analyzed by FACS for CXCR4, E-cadherin, CD9, and N-cadherin expression and by real time PCR for SOX-17, SOX-7, Alpha-fetal protein (AFP), CXCR4, Brychyury (Bry), gooscecoid (GSC), HNF-3 beta, and GATA4. AFP and SOX-7 are regarded as visceral endoderm markers, while GATA4, HNF-3 beta and SOX-17 represent definite endoderm markers, and GSC, Bry, and CXCR4 represent markers of primitive streak. FIG. 17 depicts the expression of CXCR4 by FACS.
Differentiation of embryonic stem cells to definitive endoderm was carried out as previously described in Nature Biotechnology 23, 1534-1541 (December 2005). […] In all subsequent examples unless otherwise noted, this treatment regimen will be referred to as the definite endoderm (DE) protocol. In parallel, H9, H7, or H1 cells cultured on MEF feeders were also exposed to the same DE protocol outlined above.
In some of the cultures 20 ng/ml Wnt-3a (Catalog #1324-WN-002, R&D Systems, MN), 20 ng/ml Wnt-5a (Catalog #654-WN-010, R&D Systems, MN), 25 ng/ml Wnt-7a (Catalog #3008-WN-025, R&D Systems, MN), or 25 ng/ml Wnt-5b (Catalog #3006-WN-025, R&D Systems, MN) was added throughout the five day treatment. FIG. 24 depicts phase contrast images of H9P46 definitive endoderm culture in the presence of high concentration of (a) AA or (b) AA+20 ng/ml Wnt-3a. FIG. 25 depicts the expression of CXCR4 by FACS at day 5 for H7P44, and H9P46 lines cultured on […] (1:30 dilution) and exposed to the DE protocol+Wnt-3a (FIG. 25, panels b and d) and −Wnt-3a (FIG. 25, panels a and c).
Control cultures were not treated with Wnt-3a. FIG. 27, panel a depicts the expression of CXCR4 by FACS at day 5 in the absence of Wnt-3a, b) 10 ng/ml Wnt-3a, c) 20 ng/ml Wnt-3a and d) 50 ng/ml Wnt-3a. In the absence of Wnt-3a the expression of CXCR4 was very low. […] Real-time PCR results (FIG. 28, panel a) also confirm this finding.
In order to confirm that the effect of Wnt-3a was through the Wnt pathway, a GSK-3 inhibitor was used to activate the downstream targets of Wnt, such as beta catenin. […] FIG. 29, panel a depicts the expression of CXCR4 by FACS at day 5 in the absence of Wnt-3a or GSK-3B inhibitor, b) +20 ng/ml Wnt-3a, c) +1000 nM GSK-3B inhibitor IX, d) +500 nM GSK-3B inhibitor IX, e) +100 nM GSK-3B inhibitor IX, f) +10 nM GSK-3B inhibitor IX, g) +100 nM GSK-3B inhibitor IX for days 1-2, and h) +10 nM GSK-3B inhibitor IX for days 1-2. […]

[2] = test system: human embryonic stem cell line H9; experiment: FACS of CXCR4 and CD9, H9 maintained on […] and differentiated on MEFs (Example 25); details: for CXCR4 positive cells (FACS): without (label Activin A) or with Wnt3a
Protocol: as §1
(§2) Cells from the human embryonic stem cell line H9 cultured on […]™ for at least five passages were seeded onto MEF feeders in ES media.
(§3) At day 3 and 5, the cultures were analyzed by real time PCR for SOX-17, SOX-7, Alpha-fetal protein (AFP), CXCR4, Brychyury (Bry), gooscecoid (GSC), HNF-3 beta, GATA4, hTERT and Oct4. AFP and SOX-7 are regarded as visceral endoderm markers while GATA4, HNF-3beta and SOX-17 represent definite endoderm markers and GSC, Bry, and CXCR4 represent markers of primitive streak. hTERT and Oct-4 are markers for self renewal and pluripotency respectively. FACS analysis was also performed at day 3 and 5.

[3] = test system: human embryonic stem cell line H9; experiment: Real-time PCR, H9 maintained on […] and differentiated on MEFs (Example 25)
Protocol: as §2, §3

[4] = H9P46-P48, 20 ng/ml Wnt-3a or 100-1000 nM GSK-3B inhibitor, day 5
[5] = day 3, high concentration of Activin A
[6] = day 5, high concentration of activin A

| Molecule | number of CXCR4 positive cells [1, 4] | expression of CXCR4 (FACS) ([1]; H9P46-P48, 10 nm GSK-3B inhibitor, day 5) | cells expressing CXCR4 (FACS) [1] [%] | CXCR4 positive cells (FACS) [2, 5] | CXCR4 positive cells (FACS) [2, 6] | AFP expression ([3]; lower concentration of Activin A, regardless of Wnt3a) | expression of CXCR4 (CD184) by FACS ([1]; H7P44 and H9P46, day 5, DE protocol + 20 ng/ml Wnt-3a vs low serum plus AA) | number of CXCR4 positive cells ([1]; H9P46, 10-50 ng/ml Wnt-3a with 100 ng/ml AA, day 5) | role in differentiation of human embryonic stem cells, cultured on MEFs, to definitive endoderm [2] | AFP expression ([3]; Wnt3a 20 ng/ml added to 100 ng/ml activin A, increases over time) |
| --- | --- | --- | --- | --- | --- | --- | --- | --- | --- | --- |
| O=C1Nc2cc(Br)ccc2/C1=C1/Nc2ccccc2/C1=N\O [GSK-3B inhibitor IX, reference compound] | significantly increased | very low |  |  |  |  |  |  |  |  |
| Activin A: a member of the TGFβ superfamily; R&D Systems; Group 2 = Activin A (100 ng/ml) |  |  | 1 | 32-42% | 28-32% | very high |  |  |  |  |
| Wnt-3a | significantly increased |  | 73 | 23-33% | 43-51% |  | robust expression | significantly increased | does not appear to play a significant role | increase in the expression of AFP |
